Molecular target: IDH2 R140Q (Homo sapiens (Human), UniProt P48735, R140Q)
Assay: IDH2 R140Q enzymatic cofactor depletion assay (diaphorase/resazurin)
Type: biochemical
Settings: IDH2 R140Q enzyme, one hour preincubation with compound, one hour reaction; read-out: Enz R140Q
Procedure, shortened: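 Enzyme preincubated with compound 1 h at room temperature, then reaction started with 50 μM NADPH and 6.3 mM α-KG and run 1 h at room temperature. Remaining NADPH measured by diaphorase (36 μg/ml)/resazurin (60 μM) stop mix, fluorescence read at Ex544/Em590 after 1 min.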

Sequence of IDH2 R140Q (P48735 40-452 R140Q): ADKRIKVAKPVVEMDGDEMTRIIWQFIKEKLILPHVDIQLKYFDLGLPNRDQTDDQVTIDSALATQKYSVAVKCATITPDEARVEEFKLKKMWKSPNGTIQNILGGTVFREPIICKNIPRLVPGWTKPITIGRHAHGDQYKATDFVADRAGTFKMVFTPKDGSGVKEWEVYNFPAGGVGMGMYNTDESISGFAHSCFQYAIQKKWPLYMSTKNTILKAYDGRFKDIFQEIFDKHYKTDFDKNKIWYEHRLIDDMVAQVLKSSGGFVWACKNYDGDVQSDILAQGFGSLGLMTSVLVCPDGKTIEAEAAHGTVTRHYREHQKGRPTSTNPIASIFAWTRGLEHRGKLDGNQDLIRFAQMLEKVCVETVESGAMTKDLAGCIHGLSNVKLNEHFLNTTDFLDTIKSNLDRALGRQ

Structure (SMILES) | IC50
O=C(Nc1cccc(C(F)(F)F)c1)Nc1cc(S(=O)(=O)NC2CCCC2)ccc1-c1ccsc1 [Compound 126, N-cyclopentyl-4-(thiophen-3-yl)-3-(3-(3-(trifluoromethyl)phenyl)ureido)benzenesulfonamide] | 100 to 1000 nM
O=C(Nc1cccc(C(F)(F)F)c1)Nc1cc(S(=O)(=O)NCC2CC2)ccc1-c1ccsc1 [Compound 127, N-(cyclopropylmethyl)-4-(thiophen-3-yl)-3-(3-(3-(trifluoromethyl)phenyl)ureido)benzenesulfonamide] | 100 to 1000 nM
O=C(Nc1cccc(C(F)(F)F)c1)Nc1cc(S(=O)(=O)NCC2CCC2)ccc1-c1ccsc1 [Compound 128, N-(cyclobutylmethyl)-4-(thiophen-3-yl)-3-(3-(3-(trifluoromethyl)phenyl)ureido)benzenesulfonamide] | 100 to 1000 nM
O=C(Nc1cccc(C(F)(F)F)c1)Nc1cc(S(=O)(=O)NCC2CCCC2)ccc1-c1ccsc1 [Compound 129, N-(cyclopentylmethyl)-4-(thiophen-3-yl)-3-(3-(3-(trifluoromethyl)phenyl)ureido)benzenesulfonamide] | 100 to 1000 nM
O=C(Nc1cccc(C(F)(F)F)c1)Nc1cc(S(=O)(=O)NCC(F)(F)F)ccc1-c1ccsc1 [Compound 130, 4-(thiophen-3-yl)-N-(2,2,2-trifluoroethyl)-3-(3-(3-(trifluoromethyl)phenyl)ureido)benzenesulfonamide] | 100 to 1000 nM
O=C(Nc1cccc(C(F)(F)F)c1)Nc1cc(S(=O)(=O)N2CCOCC2)ccc1-c1ccsc1 [Compound 131, 1-(5-(morpholinosulfonyl)-2-(thiophen-3-yl)phenyl)-3-(3-(trifluoromethyl)phenyl)urea] | 100 to 1000 nM
O=C(Nc1cccc(C(F)(F)F)c1)Nc1cc(S(=O)(=O)NC2CCOCC2)ccc1-c1ccsc1 [Compound 132, N-(tetrahydro-2H-pyran-4-yl)-4-(thiophen-3-yl)-3-(3-(3-(trifluoromethyl)phenyl)ureido)benzene sulfonamide] | 100 to 1000 nM
O=C(Nc1cccc(C(F)(F)F)c1)Nc1cc(S(=O)(=O)NCC2CCOCC2)ccc1-c1ccsc1 [Compound 133, N-((tetrahydro-2H-pyran-4-yl)methyl)-4-(thiophen-3-yl)-3-(3-(3-(trifluoromethyl)phenyl)ureido)benzene sulfonamide] | 100 to 1000 nM
O=C(Nc1cccc(C(F)(F)F)c1)Nc1cc(S(=O)(=O)NC2CCSCC2)ccc1-c1ccsc1 [Compound 134, N-(tetrahydro-2H-thiopyran-4-yl)-4-(thiophen-3-yl)-3-(3-(3-(trifluoromethyl)phenyl)ureido)benzene sulfonamide] | 100 to 1000 nM
O=C(Nc1cccc(C(F)(F)F)c1)Nc1cc(S(=O)(=O)N2CCS(=O)(=O)CC2)ccc1-c1ccsc1 [Compound 135, 1-(5-((1,1-dioxidothiomorpholino)sulfonyl)-2-(thiophen-3-yl)phenyl)-3-(3-(trifluoromethyl)phenyl)urea] | 100 to 1000 nM
O=C(Nc1cccc(C(F)(F)F)c1)Nc1cc(S(=O)(=O)NCc2ccccc2)ccc1-c1ccsc1 [Compound 136, N-benzyl-4-(thiophen-3-yl)-3-(3-(3-(trifluoromethyl)phenyl)ureido)benzenesulfonamide] | 100 to 1000 nM
CN(C)S(=O)(=O)c1ccc(-c2ccsc2)c(NC(=O)Nc2cccc(C(F)(F)F)c2)c1 [Compound 137] | 1000 to 10000 nM
CONS(=O)(=O)c1ccc(-c2ccsc2)c(NC(=O)Nc2cccc(C(F)(F)F)c2)c1 [Compound 138, N-methoxy-4-(thiophen-3-yl)-3-(3-(3-(trifluoromethyl)phenyl)ureido)benzenesulfonamide] | 100 to 1000 nM
CCONS(=O)(=O)c1ccc(-c2ccsc2)c(NC(=O)Nc2cccc(C(F)(F)F)c2)c1 [Compound 139, N-ethoxy-4-(thiophen-3-yl)-3-(3-(3-(trifluoromethyl)phenyl)ureido)benzenesulfonamide] | 100 to 1000 nM
O=C(Nc1cccc(C(F)(F)F)c1)Nc1cc(S(=O)(=O)N2CCC2)ccc1-c1ccsc1 [Compound 140] | 1000 to 10000 nM
O=C(Nc1cccc(C(F)(F)F)c1)Nc1cc(S(=O)(=O)N2CCCC2)ccc1-c1ccsc1 [Compound 141] | 1000 to 10000 nM
O=C(Nc1cccc(C(F)(F)F)c1)Nc1cc(S(=O)(=O)Nc2ccccc2O)ccc1-c1ccsc1 [Compound 142] | > 10000 nM
CN(c1ccccc1)S(=O)(=O)c1ccc(-c2ccsc2)c(NC(=O)Nc2cccc(C(F)(F)F)c2)c1 [Compound 143] | 1000 to 10000 nM
C[C@@H](NS(=O)(=O)c1ccc(-c2ccsc2)c(NC(=O)Nc2cccc(C(F)(F)F)c2)c1)c1ccccc1 [Compound 144] | 1000 to 10000 nM
C[C@H](NS(=O)(=O)c1ccc(-c2ccsc2)c(NC(=O)Nc2cccc(C(F)(F)F)c2)c1)c1ccccc1 [Compound 145] | 1000 to 10000 nM

Structure (SMILES) | IC50
O=C(Nc1cccc(C(F)(F)F)c1)Nc1cc(S(=O)(=O)Nc2ccc(O)cc2)ccc1-c1ccsc1 [Compound 146, N-(4-hydroxyphenyl)-4-(thiophen-3-yl)-3-(3-(3-(trifluoromethyl)phenyl)ureido)benzenesulfonamide] | 1000 to 10000 nM
O=C(Nc1cccc(C(F)(F)F)c1)Nc1cc(S(=O)(=O)Nc2cccc(C(F)(F)F)c2)ccc1-c1ccsc1 [Compound 147] | 1000 to 10000 nM
O=C(Nc1cccc(C(F)(F)F)c1)Nc1cc(S(=O)(=O)Nc2cc[nH]n2)ccc1-c1ccsc1 [Compound 148] | 1000 to 10000 nM
O=C(Nc1cccc(C(F)(F)F)c1)Nc1cc(S(=O)(=O)Nc2ccccn2)ccc1-c1ccsc1 [Compound 149] | 1000 to 10000 nM
O=C(Nc1cccc(C(F)(F)F)c1)Nc1cc(S(=O)(=O)Nc2cccnc2)ccc1-c1ccsc1 [Compound 150] | 1000 to 10000 nM
CC1(NS(=O)(=O)c2ccc(-c3ccsc3)c(NC(=O)Nc3cccc(C(F)(F)F)c3)c2)CC1 [Compound 151, N-(1-methylcyclopropyl)-4-(thiophen-3-yl)-3-(3-(3-(trifluoromethyl)phenyl)ureido)benzenesulfonamide] | 100 to 1000 nM
CC1CC1NS(=O)(=O)c1ccc(-c2ccsc2)c(NC(=O)Nc2cccc(C(F)(F)F)c2)c1 (stereo not shown) [Compound 152, N-(2-methylcyclopropyl)-4-(thiophen-3-yl)-3-(3-(3-(trifluoromethyl)phenyl)ureido)benzenesulfonamide] | 100 to 1000 nM
O=C(Nc1ccc(F)cc1)Nc1cc(S(=O)(=O)NCC2CC2)ccc1C1=CCOCC1 [Compound 153] | 1000 to 10000 nM
O=C(Nc1cccc(C(F)(F)F)c1)Nc1cc(S(=O)(=O)NCC2CC2)ccc1C1=CCOCC1 [Compound 154, N-(cyclopropylmethyl)-4-(3,6-dihydro-2H-pyran-4-yl)-3-(3-(3-(trifluoromethyl)phenyl)ureido)benzene sulfonamide] | 100 to 1000 nM
O=C(Nc1ccc(F)c(Cl)c1)Nc1cc(S(=O)(=O)NCC2CC2)ccc1C1=CCOCC1 [Compound 155, 3-(3-(3-chloro-4-fluorophenyl)ureido)-N-(cyclopropylmethyl)-4-(3,6-dihydro-2H-pyran-4-yl)benzene sulfonamide] | 100 to 1000 nM
O=C(Nc1ccc(F)c(C(F)(F)F)c1)Nc1cc(S(=O)(=O)NCC2CC2)ccc1C1=CCOCC1 [Compound 156, N-(cyclopropylmethyl)-4-(3,6-dihydro-2H-pyran-4-yl)-3-(3-(4-fluoro-3-(trifluoromethyl)phenyl)ureido)benzenesulfonamide] | 100 to 1000 nM
O=C(Nc1cccc(C(F)(F)F)c1)Nc1cc(S(=O)(=O)NCC(F)(F)F)ccc1C1=CCOCC1 [Compound 157, 4-(3,6-dihydro-2H-pyran-4-yl)-N-(2,2,2-trifluoroethyl)-3-(3-(3-(trifluoromethyl)phenyl)ureido)benzene sulfonamide] | 1000 to 10000 nM
O=C(Nc1ccc(F)c(Cl)c1)Nc1cc(S(=O)(=O)NCC(F)(F)F)ccc1C1=CCOCC1 [Compound 158, 3-(3-(3-chloro-4-fluorophenyl)ureido)-4-(3,6-dihydro-2H-pyran-4-yl)-N-(2,2,2-trifluoroethyl)benzene sulfonamide] | 100 to 1000 nM
O=C(Nc1ccc(F)c(C(F)(F)F)c1)Nc1cc(S(=O)(=O)NCC(F)(F)F)ccc1C1=CCOCC1 [Compound 159, 4-(3,6-dihydro-2H-pyran-4-yl)-3-(3-(4-fluoro-3-(trifluoromethyl)phenyl)ureido)-N-(2,2,2-trifluoroethyl)benzenesulfonamide] | 100 to 1000 nM
O=C(Nc1cccc(C(F)(F)F)c1)Nc1cc(S(=O)(=O)Nc2ccccc2)ccc1C1=CCOCC1 [Compound 161, 4-(3,6-dihydro-2H-pyran-4-yl)-N-phenyl-3-(3-(3-(trifluoromethyl)phenyl)ureido)benzene sulfonamide] | 100 to 1000 nM
O=C(Nc1cccc(C(F)(F)F)c1)Nc1cc(S(=O)(=O)NCC2CC2)ccc1C1CCCCO1 (stereo not shown) [Compound 162, N-(cyclopropylmethyl)-4-(tetrahydro-2H-pyran-2-yl)-3-(3-(3-(trifluoromethyl)phenyl)ureido)benzene sulfonamide] | 100 to 1000 nM
O=C(Nc1cccc(Cl)c1)Nc1cc(S(=O)(=O)NCC2CC2)ccc1C1CCCCO1 (stereo not shown) [Compound 163, 3-(3-(3-chlorophenyl)ureido)-N-(cyclopropylmethyl)-4-(tetrahydro-2H-pyran-2-yl)benzenesulfonamide] | 100 to 1000 nM
O=C(Nc1ccc(F)c(C(F)(F)F)c1)Nc1cc(S(=O)(=O)NCC2CC2)ccc1C1CCCCO1 (stereo not shown) [Compound 164, N-(cyclopropylmethyl)-3-(3-(4-fluoro-3-(trifluoromethyl)phenyl)ureido)-4-(tetrahydro-2H-pyran-2-yl)benzenesulfonamide] | 100 to 1000 nM
O=C(Nc1cccc(C(F)(F)F)c1)Nc1cc(S(=O)(=O)NCC(F)(F)F)ccc1C1CCCCO1 (stereo not shown) [Compound 165, 4-(tetrahydro-2H-pyran-2-yl)-N-(2,2,2-trifluoroethyl)-3-(3-(3-(trifluoromethyl)phenyl)ureido)benzene sulfonamide] | 100 to 1000 nM
O=C(Nc1ccc(F)c(Cl)c1)Nc1cc(S(=O)(=O)NCC(F)(F)F)ccc1C1CCCCO1 (stereo not shown) [Compound 166, 3-(3-(3-chloro-4-fluorophenyl)ureido)-4-(tetrahydro-2H-pyran-2-yl)-N-(2,2,2-trifluoroethyl)benzene sulfonamide] | 100 to 1000 nM
